Experimental data published in ChEMBL document CHEMBL4765473, “PF-07059013: A Noncovalent Modulator of Hemoglobin for Treatment of Sickle Cell Disease” (J Med Chem, 2021).
≈ marks a conversion by molar mass, not a printed value.

What was measured:
[1] = Intrinsic clearance in human hepatocytes assessed per million cells; format: ADME, cell-based, Hepatocyte; details: read-out: CLH
[2] = Distribution coefficient, log D of the compound by shake flask method; format: physicochemical; details: octanol/water
[3] = Modulation of HbS (unknown origin) assessed as stabilization of the oxy-state of hemoglobin by measuring conversion from oxyHb (R) to deoxyHb (T) pre-incubated for 1 hr and measured after 120 mins by oxygen dissociation assay; parameters: species or system Homo sapiens
[4] = Binding affinity to purified human cross-linked HbS by SPR analysis
[5] = target: Voltage-gated inwardly rectifying potassium channel KCNH2 (Homo sapiens, UniProt Q12809); assay: Binding affinity to human ERG by dofetilide fluorescence polarization binding assay
Sequence of Voltage-gated inwardly rectifying potassium channel KCNH2 (Q12809 whole entry): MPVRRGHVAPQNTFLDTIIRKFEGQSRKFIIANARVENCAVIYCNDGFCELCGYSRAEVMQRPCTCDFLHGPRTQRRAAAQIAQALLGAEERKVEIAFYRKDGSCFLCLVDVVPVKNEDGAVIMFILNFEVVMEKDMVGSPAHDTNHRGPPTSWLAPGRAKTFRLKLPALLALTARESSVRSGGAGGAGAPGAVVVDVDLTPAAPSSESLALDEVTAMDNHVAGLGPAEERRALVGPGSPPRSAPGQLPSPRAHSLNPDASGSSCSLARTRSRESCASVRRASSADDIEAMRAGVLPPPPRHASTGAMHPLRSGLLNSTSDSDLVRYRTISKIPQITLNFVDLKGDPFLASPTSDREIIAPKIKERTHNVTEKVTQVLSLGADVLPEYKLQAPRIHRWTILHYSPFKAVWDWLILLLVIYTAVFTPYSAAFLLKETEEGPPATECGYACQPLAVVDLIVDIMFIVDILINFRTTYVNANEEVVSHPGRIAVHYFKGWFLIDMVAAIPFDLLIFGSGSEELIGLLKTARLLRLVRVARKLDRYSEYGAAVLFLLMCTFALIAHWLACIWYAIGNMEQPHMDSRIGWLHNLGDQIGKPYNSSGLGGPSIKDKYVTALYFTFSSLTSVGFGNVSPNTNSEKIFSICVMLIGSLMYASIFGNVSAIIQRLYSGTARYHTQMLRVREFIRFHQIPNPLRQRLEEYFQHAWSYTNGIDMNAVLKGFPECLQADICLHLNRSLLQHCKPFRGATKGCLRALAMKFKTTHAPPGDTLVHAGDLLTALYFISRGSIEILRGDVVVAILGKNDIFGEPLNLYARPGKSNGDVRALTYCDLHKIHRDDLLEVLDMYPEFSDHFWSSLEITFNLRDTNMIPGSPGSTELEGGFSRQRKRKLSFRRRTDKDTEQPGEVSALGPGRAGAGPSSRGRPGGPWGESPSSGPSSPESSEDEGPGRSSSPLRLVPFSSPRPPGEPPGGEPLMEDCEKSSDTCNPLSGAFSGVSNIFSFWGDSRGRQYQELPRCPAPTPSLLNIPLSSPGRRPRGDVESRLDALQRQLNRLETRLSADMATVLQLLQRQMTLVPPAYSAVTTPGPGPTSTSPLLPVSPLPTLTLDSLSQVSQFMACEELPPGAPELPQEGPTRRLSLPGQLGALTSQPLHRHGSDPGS

[6] = Thermodynamic solubility of the compound; format: physicochemical; details: read-out: Therm_solubility
[7] = Kinetic solubility of the compound; format: physicochemical; details: read-out: Kinetic_solubility
[8] = Apparent permeability in MDCK cells; format: ADME, cell-based, Canis lupus familiaris; details: dog

| SMILES | hepatocyte CLint [1] [µL/min/1e6 cells] | logD [2] | IC50 [3] [µM] | Kd [4] [µM] | solubility thermodynamic [6] [µg/mL] | solubility kinetic [7] [µg/mL] | Papp [8] [×10⁻⁶ cm/s] | Ki [5] [µM] |
| --- | --- | --- | --- | --- | --- | --- | --- | --- |
| C[C@H](Oc1cc2cc(C(N)=O)ccc2nc1N)c1nc(OCCO)ccc1-n1cccn1 | 3 | 1.8 | 5.3 | 0.142 | – | – | – | – |
| C[C@H](Oc1cc2cc(C(N)=O)ccc2nc1N)c1cc(F)c(F)cc1-n1cccn1 | 14 | 3.2 | 5.4 | 0.122 | – | – | – | 4.1 |
| C[C@H](Oc1cc2cc(C#N)ccc2nc1N)c1cc(F)ccc1-n1cccn1 | 40 | 3.8 | 6.1 | 0.322 | – | – | – | > 40 |
| C[C@H](Oc1cc2cc(C#N)ccc2nc1N)c1cc(F)c(F)cc1-n1cccn1 | 24 | 4.3 | 5.5 | 0.381 | – | – | – | 19 |
| C[C@H](Oc1cc2cc(C(N)=O)ccc2nc1N)c1ncc(F)cc1-n1cccn1 | < 2 | 1.9 | 5.4 | 0.183 | 5.3 (≈ 13.5 µM) | 28.5 (≈ 72.6 µM) | – | 34 |
| Cc1n[nH]cc1-c1cnc(N)c(O[C@H](C)c2cc(F)ccc2-n2cccn2)c1 | – | – | – | > 300 | – | – | – | – |

These reach a lower Kd [4]. Values come first.

| hepatocyte CLint [1] [µL/min/1e6 cells] | logD [2] | IC50 [3] [µM] | Kd [4] [µM] | solubility thermodynamic [6] [µg/mL] | solubility kinetic [7] [µg/mL] | Papp [8] [×10⁻⁶ cm/s] | SMILES | Ki [5] [µM] |
| --- | --- | --- | --- | --- | --- | --- | --- | --- |
| 4 | 2.1 | 3.9 | 0.068 | 0.6 (≈ 1.46 µM) | 0.5 (≈ 1.22 µM) | – | C[C@H](Oc1cc2cc(C(N)=O)cc(F)c2nc1N)c1ncc(F)cc1-n1cccn1 | > 40 |
| 4 | 2.1 | 4.3 | 0.059 | – | – | – | C[C@H](Oc1cc2cc(C(N)=O)ccc2nc1N)c1cc2c(cnn2CCO)cc1-n1cccn1 | > 40 |
| 21 | 0.5 | 3.7 | 0.009 | – | – | – | C[C@H](Oc1cc2cc(F)ccc2nc1N)c1cc2c(cnn2CC(=O)O)cc1-n1cccn1 | > 40 |
| 4 | 0.9 | 4.9 | 0.1 | – | – | – | C[C@H](Oc1cc2cc(F)ccc2nc1N)c1cc(C(=O)O)ccc1-n1cccn1 | > 40 |
| < 3 | 2.7 | 5.5 | 0.036 | – | – | 1.4 | C[C@H](Oc1cc2cc(C(N)=O)ccc2nc1N)c1cc2[nH]ncc2cc1-n1cccn1 | 13 |
